Measured values reported in patent publication US20160044922A1, “Control of Ectoparasites” (priority 2014, published 2016).

Experiments:
fish, mammals = settings: fish versus mammals; cited from earlier work
ticks = experiment: Activity on ticks; settings: in vivo
[1] = rat versus trout liver microsomes; cited from earlier work
mosquito larvae = settings: cited from earlier work
cabbage looper = settings: cited from earlier work
tobacco budworm = settings: cited from earlier work
cotton aphids = settings: cited from earlier work
[2] = tested on: predatory mites and many beneficial insects; settings: under field conditions; cited from earlier work
southern corn rootworm = settings: cited from earlier work
fleas = experiment: Activity on fleas; settings: in vivo
[3] = tested on: Larval-stage lone star ticks (Amblyomma americanum); experiment: Dip survival assay, A. americanum larvae; type: in vivo; settings: larvae submerged 30 minutes, counted after 24 hours at 25° with 95% humidity
Description: Activity Against A. Americanum Larvae in a Dip Survival Assay
Compound 1 from a dimethyl sulfoxide (DMSO) stock or 2% DMSO alone is dispensed into a round-bottom 96-well plate and mixed with aqueous buffer containing 1% ethanol, 0.2% Triton X100. […] Larval-stage lone star ticks (Amblyomma americanum) are dispensed into the wells containing the Compound and submerged for 30 minutes. The ticks are subsequently dispensed into a tissue biopsy bag, which is allowed to dry for 1 hour. After drying, the bags are incubated at 25° with 95% humidity for 24 hours and the number of live or dead larvae are enumerated. The observations made illustrated in the following table.

tobacco bud worm = settings: cited from earlier work
beneficial mite species = settings: under normal use; cited from earlier work

| SMILES | toxicity (fish, mammals) | activity on ticks (ticks) | degradation by liver microsomes [1] | LC50 (mosquito larvae) [ppm] | LC50 (cabbage looper) [ppm] | activity (tobacco budworm) | LC50 (cotton aphids) [ppm] | impact on predatory mites and many beneficial insects [2] | activity (southern corn rootworm) | activity on fleas (fleas) | Number of live/dead A. americanum larvae 24 hours after treatment ([3]; 0.01% compound) | Number of live/dead A. americanum larvae 24 hours after treatment ([3]; 0.05% compound) | metabolism by the tobacco bud worm (tobacco bud worm) | toxicity to beneficial mite species (beneficial mite species) |
| --- | --- | --- | --- | --- | --- | --- | --- | --- | --- | --- | --- | --- | --- | --- |
| CC(C)(C)c1ccc(CCOc2ncnc3ccccc23)cc1 [Formula I, 4-tert-butylphenethyl quinazolin-4-yl ether] | higher toxicity of the compound to fish than to mammals | active | degraded more extensively by rat liver microsomes than by trout liver microsomes | 0725 | 188 | greater than 400 ppm | 2.6 | minimal impact | greater than 400 ppm | active | 0/52 | 0/48 | extensively metabolized | relatively low toxicity |
| CCc1nn(C)c(C(=O)NCc2ccc(C(C)(C)C)cc2)c1Cl [Formula II, 4-chloro-5-ethyl-2-methyl-N-[(4-tert-butylphenyl)methyl]pyrazole-3-carboxamide] |  |  |  |  |  |  |  | minimal impact |  |  |  |  |  | relatively low toxicity |
| CC(C)(C)c1ccc(CSc2cnn(C(C)(C)C)c(=O)c2Cl)cc1 [pyridaben, 4-chloro-2-tert-butyl-5-[(4-tert-butylphenyl)methylsulfanyl]pyridazin-3-one] |  |  |  |  |  |  |  | minimal impact |  |  |  |  |  |  |
